Results taken from article PMC11856108, “Capsaicin (But Not Other Vanillins) Enhances Estrogen Binding to Its Receptor: Implications for Power Sports and Cancers” (Life, 2025).
pKd: −log10 of the molar value. Entries after “also recorded” stand apart in the source; their conditions may differ. Like-named read-outs stand apart in the source and are kept apart here.

Legend:
[1] = target: insulin (human recombinant) (Homo sapiens, UniProt P01308); assay: Binding to insulin by ultraviolet spectroscopy; conditions: UV spectroscopy
insulin (human recombinant), sequence (P01308 25-54 limits assumed): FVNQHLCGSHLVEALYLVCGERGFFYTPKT
insulin (human recombinant), sequence (P01308 90-110 limits assumed): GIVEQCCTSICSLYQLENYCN
Mice: TRPV1+ vs. TRPV1- = test system: Mice: TRPV1+ vs. TRPV1-; parameters: method as in PMID 32400193; conditions: cited from earlier work
ESR1 = target: T1, ESR1 (Homo sapiens, UniProt P03372); assay: Competitive-binding ELISA of EST-HRP binding to the estrogen receptor; conditions: for shift of the estradiol (EST-HRP) binding curve: maximal shift
T1 construct: purchased Invitrogen-Thermofisher
T1 sequence (P03372 1-595): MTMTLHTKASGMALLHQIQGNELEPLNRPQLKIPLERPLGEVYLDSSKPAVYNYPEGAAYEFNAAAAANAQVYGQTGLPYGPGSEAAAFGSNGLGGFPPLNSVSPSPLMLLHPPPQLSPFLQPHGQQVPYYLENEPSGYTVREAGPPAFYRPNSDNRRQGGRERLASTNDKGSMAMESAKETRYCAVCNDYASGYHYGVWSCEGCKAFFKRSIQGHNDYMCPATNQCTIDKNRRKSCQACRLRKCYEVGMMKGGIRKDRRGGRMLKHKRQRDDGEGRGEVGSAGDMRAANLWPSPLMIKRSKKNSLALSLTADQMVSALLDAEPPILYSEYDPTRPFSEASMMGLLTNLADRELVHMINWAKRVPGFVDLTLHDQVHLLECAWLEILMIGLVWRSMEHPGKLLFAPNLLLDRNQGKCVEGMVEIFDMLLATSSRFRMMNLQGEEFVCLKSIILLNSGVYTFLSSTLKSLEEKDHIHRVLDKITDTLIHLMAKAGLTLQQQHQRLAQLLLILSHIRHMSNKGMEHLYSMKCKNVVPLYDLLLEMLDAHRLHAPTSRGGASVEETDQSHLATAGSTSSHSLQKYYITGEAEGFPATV

[2] = Binding to steroid hormone by UV spectroscopy
Method: (§1) UV spectroscopy in a crystal plate was used to investigate whether CAP has specificity for estrogen alone or whether it can bind to other naturally occurring hormones. To start, CAP was dissolved in a 1:1 solution of water to ethanol at 1 mg/mL ( 3.27×10^−3 M ) and then diluted by thirds eight times. Next, the hormones were dissolved in a 1:1 solution of water to ethanol at a 1/100 dilution. An amount of 50 μL of each CAP dilution was added to 3 wells of a crystal plate, with one well serving as the control, with another 50 μL of 1:1 water to ethanol added, and the other two serving as experimental duplicates, with 50 μL of the prepared hormone solution added. Then, two additional wells were prepared to serve as controls: one containing 100 μL of 1:1 water to ethanol and the other containing 50 μL of prepared hormone solution and 50 μL of 1:1 water to ethanol. Finally, the plate was incubated for 1 h and read in a Spectramax UV-VIS scanning spectrophotometer, spanning wavelengths from 190 to 400 nm. Data analysis involved the subtraction of observed absorbance values from expected absorbance values generated from the control wells ([CAP + 1:1 solution] + [hormone + 1:1 solution] − [1:1 solution]) and plotting them as a function of CAP concentration. Because the solvent (1:1 solution of water–ethanol) was used as a control and subtracted from all wells, the resulting data reflected only the absorbances of the solute compounds. Since each compound has a different lambda maximal absorbance, analysis of the resulting data required finding one common wavelength at which the additions and subtractions of the spectra could be carried out and at which the absorbance of each compound was maximized.
Experiments were also performed to test whether the enhancement or antagonism observed in estradiol binding to the ESR1 might be due to vanilloid compounds binding directly to estradiol or to related steroidal hormones, perhaps protecting them from oxidation or forming a complex that prevented the estradiol binding to its receptor. No vanilloid compound bound to a measurable degree to estradiol or any other steroidal hormone tested.

insulin receptor (IR) [3] = assay: Effect on INS binding to its receptor by ultraviolet spectroscopy; conditions: INS 1 µM with CAP 0.1-100 µM, or CAP 25 µM with INS 10 nM-10 µM
Method: (§2) [17, 19, 20, 21, 22, 23]. […] Because CAP binds to INS, it was possible that it might antagonize INS binding to its receptor. […] Two types of ultraviolet spectroscopy experiments were performed. In one, INS (1 µM) and the IR were kept constant and the concentration of CAP increased from 0.1 µM to 100 µM. In the other, the CAP (25 µM) and IR were kept constant and the concentration of INS increased from 10 nM to 10 µM. In neither experiment was any significant change in the INS binding curve observed.

insulin receptor (IR) [4] = target: insulin receptor (IR) (Homo sapiens, UniProt P06213); assay: Binding to the insulin receptor by ultraviolet spectroscopy; conditions: UV spectroscopy
insulin receptor (IR) (Homo sapiens, UniProt P06213), sequence (P06213 28-1382, species assumed): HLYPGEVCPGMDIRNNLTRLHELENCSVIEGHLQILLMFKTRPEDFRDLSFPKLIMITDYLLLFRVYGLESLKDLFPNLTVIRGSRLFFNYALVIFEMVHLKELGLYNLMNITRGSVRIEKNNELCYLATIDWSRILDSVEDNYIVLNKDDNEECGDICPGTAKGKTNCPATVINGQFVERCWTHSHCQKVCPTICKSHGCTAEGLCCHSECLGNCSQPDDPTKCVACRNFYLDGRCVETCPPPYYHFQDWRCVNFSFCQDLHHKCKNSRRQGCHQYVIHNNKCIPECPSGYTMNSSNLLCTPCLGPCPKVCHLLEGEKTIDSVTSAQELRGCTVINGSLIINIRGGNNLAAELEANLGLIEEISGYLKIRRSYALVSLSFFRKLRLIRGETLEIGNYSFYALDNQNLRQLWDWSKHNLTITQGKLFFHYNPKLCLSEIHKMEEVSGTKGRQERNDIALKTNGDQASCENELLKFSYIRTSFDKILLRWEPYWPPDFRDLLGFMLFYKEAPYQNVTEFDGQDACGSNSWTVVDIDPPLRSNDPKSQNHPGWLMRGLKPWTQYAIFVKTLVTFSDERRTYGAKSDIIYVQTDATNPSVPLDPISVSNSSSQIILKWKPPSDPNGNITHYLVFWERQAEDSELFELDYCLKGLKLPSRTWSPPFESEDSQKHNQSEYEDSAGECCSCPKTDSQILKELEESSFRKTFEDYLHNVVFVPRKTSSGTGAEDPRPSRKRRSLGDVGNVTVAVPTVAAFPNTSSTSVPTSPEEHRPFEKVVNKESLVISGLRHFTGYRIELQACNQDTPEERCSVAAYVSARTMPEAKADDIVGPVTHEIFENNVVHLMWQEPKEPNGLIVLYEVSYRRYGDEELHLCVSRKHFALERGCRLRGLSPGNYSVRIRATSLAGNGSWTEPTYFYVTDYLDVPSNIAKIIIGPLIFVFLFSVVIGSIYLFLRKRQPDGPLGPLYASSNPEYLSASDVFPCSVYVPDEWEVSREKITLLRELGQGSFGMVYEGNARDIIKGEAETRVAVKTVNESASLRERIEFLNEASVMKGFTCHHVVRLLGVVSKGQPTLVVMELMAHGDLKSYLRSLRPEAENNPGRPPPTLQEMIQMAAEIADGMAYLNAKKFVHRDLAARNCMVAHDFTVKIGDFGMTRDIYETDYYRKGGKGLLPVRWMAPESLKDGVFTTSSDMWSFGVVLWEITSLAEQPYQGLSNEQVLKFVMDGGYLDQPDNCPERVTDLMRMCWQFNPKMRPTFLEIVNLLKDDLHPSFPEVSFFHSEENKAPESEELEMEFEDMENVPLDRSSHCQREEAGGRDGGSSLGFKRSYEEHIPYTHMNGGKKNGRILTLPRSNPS
Method: as §1, §2
CAP did bind to the ESR1 with what appears to be a high affinity (Kd = 0.9 µM) and a lower affinity (Kd = 10 µM) site. […] Other vanilloid compounds also bound to the ESR1 but with lower affinity than CAP (Figure 6). None bound to the IR.

Human HepG2 cells = test system: Human HepG2 cells; parameters: method as in PMID 25621172; conditions: cited from earlier work
Mice [5] = test system: Mice; parameters: method as in doi:10.32604/biocell.2023.028222; conditions: cited from earlier work
Mice [6] = test system: Mice; parameters: method as in PMID 23536811; conditions: cited from earlier work
[7] = test system: Human (prostate cancer cells); parameters: method as in PMID 19705615; conditions: cited from earlier work
Human = test system: Human; parameters: method as in PMID 30668390; conditions: cited from earlier work
Human (male) = test system: Human (male); parameters: method as in PMID 8926537; conditions: cited from earlier work
[8] = test system: Human nasopharyngeal carcinoma; parameters: method as in PMID 28644386; conditions: cited from earlier work
Mice [9] = test system: Mice; parameters: method as in PMID 38700794; conditions: cited from earlier work

pKd ([1]; Binding (Kd) Insulin, Table 1): 5.40 | binding to insulin (in words) [1]: bound to insulin | pKd ([1]; binding constant to INS): ~5.40 | shift of the estradiol (EST-HRP) binding curve (ESR1): approximately a half of a log unit | shift of the estradiol (EST-HRP) binding curve (ESR1; listed as CAP): half-log leftward shift | Binding (Kd) 4-Androstene-3,17-dione [2]: No binding | Binding (Kd) 5-Pregnan-3β-OL-2O-one [2]: No binding | Binding (Kd) Estradiol [2]: No binding | Binding (Kd) Estriol [2]: No binding | Binding (Kd) Progesterone [2]: No binding | Binding (Kd) Estradiol ([2]; listed as capsaicin): did not bind directly to estradiol | effect on INS binding to its receptor (insulin receptor (IR) [3]): no observable effect | binding to the insulin receptor (in words) (insulin receptor (IR) [4]; listed as capsaicin): not the insulin receptor
Structure (SMILES): COc1cc(CNC(=O)CCCC/C=C/C(C)C)ccc1O [Capsaicin, trans-8-methyl-N-vanillyl-6-nonenamide]
Cancer-Related Effects (Mice: TRPV1+ vs. TRPV1-): >Chemoprevention | Downregulates or Inhibits (Mice: TRPV1+ vs. TRPV1-): >Blocked metastatic burden >Mechanism unknown | competition with estradiol for binding to ESR1 (ESR1): did not compete with estradiol for binding to ESR1 | effect on estradiol (EST-HRP) binding to the estrogen receptor (ESR1; listed as CAP): enhanced binding of estradiol to its receptor in a concentration-dependent manner; also recorded: increases binding of estradiol to its receptor | effect on INS binding to its receptor (insulin receptor (IR) [3]; listed as CAP): does not, apparently, alter INS binding to its receptor; also recorded: did not significantly affect INS binding to its receptor | binding to the insulin receptor (in words) (insulin receptor (IR) [4]; listed as CAP): did not bind significantly to the IR except at concentrations well beyond those physiologically possible | Cancer-Related Effects (Human HepG2 cells): >Sensitizes human cancer cells to cytocidal effects of chemotherapeutic agents >Selectivity to kill cancer cells with minimal damage to normal cells | Downregulates or Inhibits (Human HepG2 cells): >MDR-1 pathway → downregulates MDR-1 transcription (improves sensitivity) | Cancer-Related Effects (Mice [5]): >Attenuates testosterone-induced prostate growth | Capsaicin Upregulates (Mice [6]): >Ca^2+ ion release into the cell via TRPV-1 activation >Muscle actin–myosin interaction >Force generation >Intramuscular triglyceride consumption | Cancer-Related Effects [7]: >Induces apoptosis | Upregulates [7]: >Cleavage of procaspase-3 to caspase-3 >Interaction with caspase-1 >TRPV1-mediated Ca+ influx | Cancer-Related Effects (Human): >Inhibits cell proliferation | Downregulates or Inhibits (Human): >Cell cycle arrest in G0/G1 and G2/M phase >Suppresses ROS production | Upregulates (Human): >Increase in reduced glutathione and DPPH | Capsaicin Upregulates (Human (male)): >Fat metabolism through neuroadrenergic effects of TRPV-1 activation | Cancer-Related Effects [8]: >Regulation of autophagic pathways | Upregulates [8]: >Increases levels of LC3-II and Atg5 >Enhances p62 and Fap-1 degradation | Cancer-Related Effects (Mice [9]): >Ameliorated changes to the histological structure, prostate weight and prostate index (prostate/body weight ratio) | Downregulates or Inhibits (Mice [9]): >TGF-β1/Smad signaling pathway → expression of E-cadherin, TGFBR2, TGF-β1 and p-Smad2/3 >IGF-1/AKT signaling pathway → expression of IGF-1, IGF-1R, p-AKT and RAGE >Androgen signaling pathway → expression of 5-αreductase type II, AR and PSA | Upregulates (Mice [9]): >TGF-β1/Smad signaling pathway → expression of N-cadherin, vimentin, fibronectin >TRPV-1-mediated apoptosis
